These results are taken from US20140221340A1 (KYOWA HAKKO KIRIN CO., LTD., priority 2011, published 2014).

The first experiment concerns the target T1, human CCR10 (Homo sapiens, UniProt P46092).
T1 construct: expressed in transfected cells; host or cells: KJMGER8 cell (cell line derived from Namalwa cell); expression induced with 10 nmol/L β-estradiol
T1 sequence (P46092 1-362): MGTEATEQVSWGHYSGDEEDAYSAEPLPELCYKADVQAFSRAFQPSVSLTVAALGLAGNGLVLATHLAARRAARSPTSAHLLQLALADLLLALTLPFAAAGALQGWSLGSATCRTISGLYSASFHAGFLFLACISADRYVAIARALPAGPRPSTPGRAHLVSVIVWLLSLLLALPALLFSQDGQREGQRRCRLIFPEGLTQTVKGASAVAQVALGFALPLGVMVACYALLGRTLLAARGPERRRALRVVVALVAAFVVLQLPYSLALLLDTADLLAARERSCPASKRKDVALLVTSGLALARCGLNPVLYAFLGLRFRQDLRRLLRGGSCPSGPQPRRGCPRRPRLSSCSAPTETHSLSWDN
As to the kind of experiment: Calcium assay of human CCR10 (inhibition of CTACK-induced increase in intracellular calcium ion concentration in hCCR10G16 cells). The format is cell-based. The settings on record: test compound 100 nmol/L; human recombinant CTACK; hCCR10G16 cells (KJMGER8/Namalwa-derived, Gα16 co-expressed); FLIPR or FDSS. In outline:
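KJMGER8-derived hCCR10G16 cells (human CCR10 plus Gα16, expression induced 24 h with 10 nmol/L β-estradiol) were dye-loaded and preincubated with compound for 30 min at 37 °C, then stimulated with CTACK (300 nmol/L stock). Calcium flux over ~5 min (max−min fluorescence) gave percent inhibition versus DMSO control.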
A general note: A change in cytosolic calcium serves as a functional read-out for many receptors and channels.
Take `Cc1ccc(F)c(Nc2c(C(=O)N3CCC4(CC3)OCc3ccccc34)cnc3c(S(=O)(=O)NC(=O)C4CC4)cnn23)c1` [a-52]: the “Inhibitory rate (%) for an increase in calcium ion concentration” value was >100%.

The experiment is the same for the next values; noted with them: test compound 100 nmol/L; human recombinant CTACK; hCCR10G16 cells (KJMGER8/Namalwa-derived, Gα16 co-expressed); FLIPR or FDSS; read-out: Inhibitory rate (%) for an increase in calcium ion concentration.
On to `CNCC(=O)NS(=O)(=O)c1cnn2c(Nc3ccc(F)cc3C)c(C(=O)N3CCC(c4ccccc4)CC3)cnc12` [a-63, N-[7-(4-Fluoro-2-methylphenylamino)-6-(4-phenylpiperidine-1-carbonyl)pyrazolo[1,5-a]pyrimidin-3-ylsulfonyl]-2-methylaminoacetamide], for which the inhibition at 0.1 µM came to 58.8%.

`CCC(=O)NS(=O)(=O)c1cnn2c(Nc3cc(F)ccc3F)c(C(=O)N3CCC(c4ccc(F)cc4)CC3)cnc12` [a-36, N-{7-(2,5-Difluorophenylamino)-6-[4-(4-fluorophenyl)piperidine-1-carbonyl]pyrazolo[1,5-a]pyrimidin-3-ylsulfonyl}propionamide]: the inhibition at 0.1 µM is > 100%.

On to `CCC(=O)NS(=O)(=O)c1cnn2c(Nc3ccc(C)cc3F)c(C(=O)N3CCC4(CC3)OCc3ccccc34)cnc12` [a-48, N-{7-(2-Fluoro-4-methylphenylamino)-6-[3H-spiro(isobenzofuran-1,4′-piperidine)-1′-carbonyl]pyrazolo[1,5-a]pyrimidin-3-ylsulfonyl}propionamide], for which the inhibition at 0.1 µM was > 100%.

`O=C(NS(=O)(=O)c1cnn2c(NCc3ccccc3)c(C(=O)N3CCC(c4ccccc4)CC3)cnc12)C1CC1` [a-75, N-[7-Benzylamino-6-(4-phenylpiperidine-1-carbonyl)pyrazolo[1,5-a]pyrimidin-3-ylsulfonyl]cyclopropanecarboxamide]: the inhibition at 0.1 µM worked out at 89.4%.

Take `COCC(=O)NS(=O)(=O)c1cnn2c(Nc3ccc(F)cc3C)c(C(=O)N3CCC(c4ccccc4)CC3)cnc12` [a-64, N-[7-(4-Fluoro-2-methylphenylamino)-6-(4-phenylpiperidine-1-carbonyl)pyrazolo[1,5-a]pyrimidin-3-ylsulfonyl]-2-methoxyacetamide]: the inhibition at 0.1 µM worked out at 94.2%.

Regarding `CCNC(=O)NS(=O)(=O)c1cnn2c(Nc3ccccc3Cl)c(C(=O)N3CCC(c4ccc(F)cc4)CC3)cnc12` [a-10, 7-(2-Chlorophenylamino)-N-(ethylcarbamoyl)-6-[4-(4-fluorophenyl)piperidine-1-carbonyl]pyrazolo[1,5-a]pyrimidine-3-sulfonamide], the inhibition at 0.1 µM was > 100%.

On to `Cc1cc(F)ccc1Nc1c(C(=O)N2CCC(c3ccccc3)CC2)cnc2c(S(=O)(=O)NC(=O)C3CC3)cnn12` [a-1, N-[7-(4-Fluoro-2-methylphenylamino)-6-(4-phenylpiperidine-1-carbonyl)pyrazolo[1,5-a]pyrimidin-3-ylsulfonyl]cyclopropanecarboxamide], for which the inhibition at 0.1 µM is 93.4%.

With `Cc1cc(F)ccc1Nc1c(C(=O)N2CCC(c3ccc(F)cc3)CC2)cnc2c(S(=O)(=O)NCC(F)(F)F)cnn12` [a-4, 7-(4-Fluoro-2-methylphenylamino)-6-[4-(4-fluorophenyl)piperidine-1-carbonyl]-N-(2,2,2-trifluoroethyl)pyrazolo[1,5-a]pyrimidine-3-sulfonamide], the inhibition at 0.1 µM is > 100%.

As to `CCNS(=O)(=O)c1cnn2c(Nc3ccc(F)cc3C)c(C(=O)N3CCC(c4ccccc4)CC3)cnc12` [a-2, N-Ethyl-7-(4-fluoro-2-methylphenylamino)-6-(4-phenylpiperidine-1-carbonyl)pyrazolo[1,5-a]pyrimidine-3-sulfonamide], the inhibition at 0.1 µM is > 100%.

Consider `CC(=O)NS(=O)(=O)c1cnn2c(Nc3cc(C)ccc3Cl)c(C(=O)N3CCC4(CC3)OCc3ccccc34)cnc12` [a-55, N-{7-(2-Chloro-5-methylphenylamino)-6-[3H-spiro(isobenzofuran-1,4′-piperidine)-1′-carbonyl]pyrazolo[1,5-a]pyrimidin-3-ylsulfonyl}acetamide], for which the inhibition at 0.1 µM was > 100%.

`O=C(c1cnc2c(S(=O)(=O)Nc3cccnn3)cnn2c1Nc1cc(Cl)ccc1Cl)N1CCC(c2ccc(F)cc2)CC1` [a-79, 7-(2,5-Dichlorophenylamino)-6-[4-(4-fluorophenyl)piperidine-1-carbonyl]-N-(pyridazin-3-yl)pyrazolo[1,5-a]pyrimidine-3-sulfonamide]: the inhibition at 0.1 µM is > 100%.

With `CONS(=O)(=O)c1cnn2c(Nc3cc(Cl)ccc3Cl)c(C(=O)N3CCC(c4ccc(F)cc4)CC3)cnc12` [a-27, 7-(2,5-Dichlorophenylamino)-6-[4-(4-fluorophenyl)piperidine-1-carbonyl]-N-methoxypyrazolo[1,5-a]pyrimidine-3-sulfonamide], the inhibition at 0.1 µM is > 100%.

On to `CCNC(=O)NS(=O)(=O)c1cnn2c(Nc3cc(C)ccc3Cl)c(C(=O)N3CCC(c4ccc(F)cc4)CC3)cnc12` [a-14, 7-(2-Chloro-5-methylphenylamino)-N-(ethylcarbamoyl)-6-[4-(4-fluorophenyl)piperidine-1-carbonyl]pyrazolo[1,5-a]pyrimidine-3-sulfonamide], for which the inhibition at 0.1 µM was > 100%.

For the compound `COC(=O)NS(=O)(=O)c1cnn2c(Nc3cc(C)ccc3C)c(C(=O)N3CCC(c4ccccc4)CC3)cnc12` [a-74, Methyl 7-(2,5-dimethylphenylamino)-6-(4-phenylpiperidine-1-carbonyl)pyrazolo[1,5-a]pyrimidin-3-ylsulfonylcarbamate], the inhibition at 0.1 µM was > 100%.

As for `CC(=O)NS(=O)(=O)c1cnn2c(Nc3ccc(F)cc3C)c(C(=O)N3CCC(c4ccccc4)CC3)cnc12` [a-17, N-[7-(4-Fluoro-2-methylphenylamino)-6-(4-phenylpiperidine-1-carbonyl)pyrazolo[1,5-a]pyrimidin-3-ylsulfonyl]acetamide], the inhibition at 0.1 µM is > 100%.

Take `Cc1ccc(Cl)c(Nc2c(C(=O)N3CCC(c4ccc(F)cc4)CC3)cnc3c(S(=O)(=O)NC(=O)C4CC4)cnn23)c1` [a-12, N-{7-(2-Chloro-5-methylphenylamino)-6-[4-(4-fluorophenyl)piperidine-1-carbonyl]pyrazolo[1,5-a]pyrimidin-3-ylsulfonyl}cyclopropanecarboxamide]: the inhibition at 0.1 µM is > 100%.

For `CCC(=O)NS(=O)(=O)c1cnn2c(Nc3cc(C)ccc3Cl)c(C(=O)N3CCC(c4ccc(F)cc4)CC3)cnc12` [a-13, N-{7-(2-Chloro-5-methylphenylamino)-6-[4-(4-fluorophenyl)piperidine-1-carbonyl]pyrazolo[1,5-a]pyrimidin-3-ylsulfonyl}ethanecarboxamide], the inhibition at 0.1 µM is > 100%.

Take `O=C(c1cnc2c(S(=O)(=O)Nc3nncs3)cnn2c1Nc1cc(Cl)ccc1Cl)N1CCC(c2ccc(F)cc2)CC1` [a-78, 7-(2,5-Dichlorophenylamino)-6-[4-(4-fluorophenyl)piperidine-1-carbonyl]-N-(1,3,4-thiadiazol-2-yl)pyrazolo[1,5-a]pyrimidine-3-sulfonamide]: the inhibition at 0.1 µM is > 100%.

With `CCC(=O)NS(=O)(=O)c1cnn2c(Nc3ccc(F)cc3Cl)c(C(=O)N3CCC4(CC3)OCc3ccccc34)cnc12` [a-50, N-{7-(2-Chloro-4-fluorophenylamino)-6-[3H-spiro(isobenzofuran-1,4′-piperidine)-1′-carbonyl]pyrazolo[1,5-a]pyrimidin-3-ylsulfonyl}propionamide], the inhibition at 0.1 µM is > 100%.

For the compound `O=CNS(=O)(=O)c1cnn2c(Nc3cc(Cl)ccc3Cl)c(C(=O)N3CCC(c4ccc(F)cc4)CC3)cnc12` [a-26, N-{7-(2,5-Dichlorophenylamino)-6-[4-(4-fluorophenyl)piperidine-1-carbonyl]pyrazolo[1,5-a]pyrimidin-3-ylsulfonyl}formamide], the inhibition at 0.1 µM was > 100%.
